Test results reported in ChEMBL document CHEMBL1201862, “PubChem BioAssay data set” (2004).
The source made the active and inactive calls.

Columns and labels:
P388/ADR = assay: cells; format: functional; details: Mus musculus
P388 = assay: cells; format: functional; details: Mus musculus
SN12K1 = assay: cells; format: functional; details: Homo sapiens
[1] = P. falciparum Dd2 growth inhibitors, dose response, SYBR Green, cherry-picked samples (AID 1159567); format: functional, cell-based
[2] = target: T1, Oxysterols receptor LXR-beta (Homo sapiens, UniProt P55055); assay: LXR agonists, Gal4 luciferase reporter, dose response, counter-screen for ssDAF-12 agonist project, cell-based, luminescence, HEK293, S. stercoralis campaign (AID 720737); format: functional; details: read-out: IC50 (the source's name)
T1 sequence (P55055 whole entry): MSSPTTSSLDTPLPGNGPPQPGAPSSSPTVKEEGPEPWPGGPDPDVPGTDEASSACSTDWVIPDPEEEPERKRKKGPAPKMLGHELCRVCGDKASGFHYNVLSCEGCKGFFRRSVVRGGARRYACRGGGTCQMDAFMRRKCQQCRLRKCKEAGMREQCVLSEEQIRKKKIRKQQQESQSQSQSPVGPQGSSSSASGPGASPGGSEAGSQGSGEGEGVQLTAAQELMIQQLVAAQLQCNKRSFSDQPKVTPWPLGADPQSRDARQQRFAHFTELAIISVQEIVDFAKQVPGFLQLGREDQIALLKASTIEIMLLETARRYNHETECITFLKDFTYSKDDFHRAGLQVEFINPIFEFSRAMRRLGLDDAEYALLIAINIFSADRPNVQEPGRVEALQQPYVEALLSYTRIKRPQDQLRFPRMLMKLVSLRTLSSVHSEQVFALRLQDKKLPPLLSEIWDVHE

[3] = Luminescence-based cell-based high throughput dose response assay to identify activators of the DAF-12 from the parasite S. stercoralis (ssDAF-12).; format: functional
[4] = activation of miR-122 Renilla sensor silencing – cell-based, Huh7 psiCHECK-miR122, Renilla luciferase, cherry-picked, dose response (AID 651956); format: functional;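 also: huh7 hepatoma cells stably carrying a psiCHECK-2 miR-122 sensor plasmid; renilla luciferase signal reporting endogenous miR-122 activity after 48 h compound exposure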
[5] = general mammalian cell viability loss – inhibitor set, cherry-pick, set 2, cytotoxicity control for miR-122 modulator project, dose response (AID 720697); format: functional, cell-based

## Cc1cn([C@H]2C[C@H](N=[N+]=[N-])[C@@H](CO)O2)c(=O)[nH]c1=O [ZIDOVUDINE]
P388/ADR
  GI50: > 100 µM (inactive)
P388
  GI50: 99.3 µM (inactive)
SN12K1
  GI50: > 100 µM (inactive)

## CCS(=O)(=O)N1CCCCN2[C@H](CO)[C@@H](c3ccc(-c4cccc(C#N)c4)cc3)[C@@H]2C1
[1]
  AC50: 9.04 µM (active)

## C[C@@H]1CN([C@@H](C)CO)C(=O)c2c(c3ccccc3n2C)-c2ccccc2CO[C@@H]1CN(C)C(=O)[C@H](C)c1ccccc1
[1]
  AC50: 3.29 µM (active)

## O=C(CCNC(=O)c1ccccc1)N=Nc1c(O)[nH]c2ccccc12
[2]
  EC50: > 67.5 µM (inactive)
[3]
  IC50: > 67.5 µM (inactive)

## C=C1[C@@H](C)[C@H]2[C@H](Cc3ccccc3)NC(=O)[C@]23OC(=O)/C=C/[C@H](O)CCC[C@@H](C)C/C=C/[C@H]3[C@@H]1O
P388/ADR
  GI50: 15.3 µM (inactive)
P388
  GI50: 12.4 µM (inactive)
SN12K1
  GI50: 0.31 µM (active)

## CCc1ccc2cc3c(cc2n1)C(=O)c1ccccc1-3
[2]
  EC50: > 67.5 µM (inactive)
[3]
  IC50: > 67.5 µM (inactive)

## C[C@@H]1CN([C@@H](C)CO)C(=O)c2cc(NS(=O)(=O)c3ccc(F)cc3)ccc2O[C@@H]1CN(C)Cc1ccc(-c2ccccc2)cc1
[4]
  AC50: 17.7 µM (active)
[5]
  AC50: < 0.195 µM (active)

## N#Cc1cc2ccccc2nc1SCc1ccccn1
[2]
  EC50: > 67.5 µM (inactive)
[3]
  IC50: > 67.5 µM (inactive)
